These results are taken from US7943608B2, “Diazepinoes” (Merck Patent GmbH, priority 2005, dated 2011).

In general, IC50 refers to the midpoint of a concentration-inhibition curve.

The first assay has as its target T1, His6-PDK1(Δ1-50) (Homo sapiens, UniProt O15530).
T1 construct: His6 (N)
T1 sequence (O15530 51-556): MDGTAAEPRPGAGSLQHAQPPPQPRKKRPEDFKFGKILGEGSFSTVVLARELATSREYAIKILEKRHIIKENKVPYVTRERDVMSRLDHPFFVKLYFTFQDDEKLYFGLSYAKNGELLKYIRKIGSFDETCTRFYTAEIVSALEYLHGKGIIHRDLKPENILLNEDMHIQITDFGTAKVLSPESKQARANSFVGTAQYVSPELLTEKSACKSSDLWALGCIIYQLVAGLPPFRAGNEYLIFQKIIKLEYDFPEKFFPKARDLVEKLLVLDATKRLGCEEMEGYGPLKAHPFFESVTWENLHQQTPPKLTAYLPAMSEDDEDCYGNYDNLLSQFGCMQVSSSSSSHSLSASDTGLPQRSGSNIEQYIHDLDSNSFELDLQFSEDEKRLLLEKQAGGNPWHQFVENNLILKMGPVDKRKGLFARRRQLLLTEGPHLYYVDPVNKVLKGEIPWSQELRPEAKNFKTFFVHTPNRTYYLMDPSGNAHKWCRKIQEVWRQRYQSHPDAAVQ
The experiment in a line: Inhibition of PDK1 (IC50), 384-well flashplate kinase assay. It is filed as biochemical. Particulars: 4 μM ATP, 400 nM PDKtide, first part of Table 1 (compounds 1-31). How it is done: Inhibition of PDK1 (IC50)
The kinase assay can be carried out as a 384-well flashplate assay. 3.4 nM His6-PDK1(Δ1-50), 400 nM PDKtide (biotin-bA-bA-[…]) and 4 μM ATP (with 0.2 μCi of 33P-ATP/well) are incubated at […] for 60 min in a total volume of 50 μl (50 mM TRIS, 10 mM Mg acetate, 0.1% of mercaptoethanol, 0.02% of Brij35, 0.1% of BSA, pH 7.5) with or without test substance (5-10 concentrations). The reaction is stopped using 25 μl of 200 mM EDTA solution, filtered with suction after 30 min at room temperature, and the wells are washed with 3 times 100 μl of 0.9% NaCl solution. The nonspecific content of the kinase reaction (blank) is determined using 100 nM staurosporine. Radioactivity is measured using a Topcount scintillation counter (PerkinElmer, USA). IC50 values are calculated using the RS1 computer program.
In the case of `Cc1ccc2c(c1)Nc1nc(NC3CCN(C)CC3)ncc1C(=O)N2` [Compound 9, 7-Methyl-3-(1-methylpiperidin-4-ylamino)-5,10-dihydro-2,4,56,10-tetraazadibenzo[a,d]cyclohepten-11-one], the IC50 was determined as 4800 nM.

As for `Cc1noc(C)c1-c1ccc2c(c1)NC(=O)c1cnc(N(C)C3CCN(C)CC3)nc1N2` [Compound 29], it took 3200 nM to reach half-maximal inhibition (IC50). The molecule `CN1CCC(N(C)c2ncc3c(n2)Nc2ccc(-c4ccsc4)cc2NC3=O)CC1` [Compound 25] registered an IC50 of 1000 nM. Consider `Cc1cc2c(cc1C)Nc1nc(NC3CCN(C)CC3)ncc1C(=O)N2` [Compound 8, 7,8-Dimethyl-3-(1-methylpiperidin-4-ylamino)-5,10-dihydro-2,4,5,10-tetraazadibenzo[a,d]cyclohepten-11-one], for which half-maximal inhibition (IC50) was put at 2500 nM. The molecule `Cc1ccc2c(c1C)Nc1nc(NC3CCN(C)CC3)ncc1C(=O)N2` [Compound 23] gave an IC50 of 3600 nM. The same measure, in the same setting: under `Cc1ccc2c(c1)NC(=O)c1cnc(N(C)C3CCN(C)CC3)nc1N2` [Compound 14] stands 400 nM; under `CN1CCC(N(C)c2ncc3c(n2)Nc2ccc(C(C)(C)C)cc2NC3=O)CC1` [Compound 16], 400 nM; under `CN1CCC(N(C)c2ncc3c(n2)Nc2ccc(Cl)cc2NC3=O)CC1` [Compound 4, 8-Chloro-3-[methyl(1-methylpiperidin-4-yl)amino]-5,10-dihydro-2,4,5,10-tetraazadibenzo[a,d]cyclohepten-11-one], 1400 nM. The same measure, in the same setting: under `Cc1ccc2c(c1)NC(=O)c1cnc(NC3CCN(C)CC3)nc1N2` [Compound 12] stands 900 nM; under `CN1CCC(N(C)c2ncc3c(n2)Nc2ccc(Br)cc2NC3=O)CC1` [Compound 13], 1700 nM.

The assay is the same for the next values; noted with them: 4 μM ATP, 400 nM PDKtide, second part of Table 1 (compounds 32-124).
In the case of `CCN1CCC(Nc2ncc3c(n2)Nc2c(C)cc(C)cc2NC3=O)CC1` [Compound 42], inhibition was half-maximal at 4800 nM (IC50). That is a single-digit micromolar value. With `CN1CCC(N(C)c2ncc3c(n2)Nc2cc(NC(=O)NC4CCCC4)ccc2NC3=O)CC1` [Compound 69], the IC50 was determined as 650 nM. Still for that read-out and setting: then `CCC(C)NC(=O)Nc1ccc2c(c1)Nc1nc(N(C)C3CCN(C)CC3)ncc1C(=O)N2` (centres unmarked) [Compound 77], with 940 nM; and `Cc1cc(C)c2c(c1)NC(=O)c1cnc(NC3CCN(C)CC3)nc1N2` [Compound 34], with 3700 nM.

Take `CCCNC(=O)Nc1ccc2c(c1)Nc1nc(N(C)C3CCN(C)CC3)ncc1C(=O)N2` [Compound 81]: the IC50 was found to be 420 nM.

Regarding `CN1CCC(N(C)c2ncc3c(n2)Nc2cc(Cl)c(Cl)cc2NC3=O)CC1` [Compound 35], the IC50 came to 3700 nM. In the case of `Cc1ccc2c(c1)NC(=O)c1cnc(NC3CCN(C(C)C)CC3)nc1N2` [Compound 53], it took 2400 nM to reach half-maximal inhibition (IC50). Compared with the last molecule, the IC50 is about 1.5-fold lower. Same read-out and setting: then `CN1CCC(N(C)c2ncc3c(n2)Nc2cc(NC(=O)Nc4ccsc4)ccc2NC3=O)CC1` [Compound 94], with 160 nM. The same measure, in the same setting: under `CN1CCC(N(C)c2ncc3c(n2)Nc2cc(NC(=O)Nc4cccs4)ccc2NC3=O)CC1` [Compound 90] stands 290 nM; under `CN1CCC(Nc2ncc3c(n2)Nc2cc(Cl)c(Cl)cc2NC3=O)CC1` [Compound 36], 1200 nM. Still for that read-out and setting: under `CC(C)N1CCC(Nc2ncc3c(n2)Nc2ccc(F)cc2NC3=O)CC1` [Compound 52] stands 3600 nM. Take `CCN1CCC(Nc2ncc3c(n2)Nc2ccc(C(C)C)cc2NC3=O)CC1` [Compound 44]: the IC50 turned out to be 920 nM. Still for that read-out and setting: then `Cc1cc2c(cc1C)Nc1nc(N(C)C3CCN(CCN(C)C)CC3)ncc1C(=O)N2` [Compound 73], with 3900 nM; and `CCN1CCC(Nc2ncc3c(n2)Nc2ccc(C)cc2NC3=O)CC1` [Compound 45], with 1500 nM. Still for that read-out and setting: then `CN1CCC(N(C)c2ncc3c(n2)Nc2ccc(NC(=O)NC4CCCCC4)cc2NC3=O)CC1` [Compound 88], with 150 nM; and `CN1CCC(N(C)c2ncc3c(n2)Nc2cc(NC(=O)NC4CCCCC4)ccc2NC3=O)CC1` [Compound 82], with 750 nM; and `Cc1cc2c(cc1C)Nc1nc(N(C)C3CCN(C(=O)CCN(C)C)CC3)ncc1C(=O)N2` [Compound 72], with 8100 nM. Same read-out and setting: then `Cc1cc2c(cc1C)Nc1nc(N(C)C3CCN(C)CC3)ncc1C(=O)N2` [Compound 32], with 640 nM; and `CC(C)N1CCC(Nc2ncc3c(n2)Nc2ccc(C(C)(C)C)cc2NC3=O)CC1` [Compound 51], with 2700 nM; and `CC(C)N1CCC(Nc2ncc3c(n2)Nc2ccc(C(F)(F)F)cc2NC3=O)CC1` [Compound 61], with 6500 nM. `Cc1noc(C)c1NC(=O)Nc1cccc2c1Nc1nc(N(C)C3CCN(C)CC3)ncc1C(=O)N2` [Compound 102] had an IC50 of 3400 nM. On the same count and under the same terms, under `CN1CCC(N(C)c2ncc3c(n2)Nc2ccc(C(F)(F)F)cc2NC3=O)CC1` [Compound 67] stands 1300 nM; under `CCN1CCC(Nc2ncc3c(n2)Nc2cc(Cl)c(Cl)cc2NC3=O)CC1` [Compound 39], 4900 nM.

In turn, `Cc1cc2c(cc1C)Nc1nc(N(C)C3CCNCC3)ncc1C(=O)N2` [Compound 74] yielded a 50% inhibitory concentration (IC50) of 320 nM. The molecule `CN1CCC(N(C)c2ncc3c(n2)Nc2ccc(-c4cccs4)cc2NC3=O)CC1` [Compound 63] registered an IC50 of 1000 nM.
